Here are results for 4 compounds from ChEMBL document CHEMBL1158039, “Chemical constituents from the peels of Citrus sudachi” (2006).

What all share (assay type): functional
Assay [1] deals with Staphylococcus aureus. The experiment in a line: Antimicrobial activity against methicillin-resistant Staphylococcus aureus COL at 100 ug/disk after 24 hrs by disk diffusion method. Conditions: read-out: IZ. Background: In agar diffusion tests the substance spreads into inoculated agar from a disc or well.
Assay [2] deals with Helicobacter pylori. The assay is described as follows: Antimicrobial activity against Helicobacter pylori ATCC 43504 at 100 ug/disk after 4 days by disk diffusion method. As to conditions: ATCC 43504, 96 h, read-out: IZ.
The test system of assay [3] is Staphylococcus aureus. The assay is described as follows: Antimicrobial activity against methicillin-resistant Staphylococcus aureus 5 at 100 ug/disk after 24 hrs by disk diffusion method. Conditions: read-out: IZ.
Assay [4] concerns Helicobacter pylori. The assay is described as follows: Antimicrobial activity against Helicobacter pylori ATCC 43504 at 0.25 ug/disk after 4 days by disk diffusion method. Conditions: ATCC 43504, 96 h, read-out: IZ.
Assay [5] relates to Staphylococcus aureus. The assay is described as follows: Antimicrobial activity against methicillin-resistant Staphylococcus aureus 5 at 20 ug/disk after 24 hrs by disk diffusion method. Conditions: read-out: IZ.
Assay [6] has as its system Staphylococcus aureus. The experiment in a line: Antimicrobial activity against methicillin-resistant Staphylococcus aureus COL at 20 ug/disk after 24 hrs by disk diffusion method. Conditions: read-out: IZ.

For `COc1cc(-c2cc(=O)c3c(O)c(OC)c(O)c(OC)c3o2)ccc1O` [SUDACHITIN], the values for the zone of inhibition at 100 µg/disc in the assay on Staphylococcus aureus [1], with Helicobacter pylori [2] and in the assay with Staphylococcus aureus [3] were 12 mm, 14 mm and 25.4 mm, respectively.
Consider `COc1c(O)c(OC)c2oc(-c3ccc(O)cc3)cc(=O)c2c1O`, for which the zone of inhibition at 100 µg/disc with Staphylococcus aureus [1] amounted to 12.5 mm; in the assay with Helicobacter pylori [2], 10.5 mm; with Staphylococcus aureus [3], 23.8 mm.
Consider `CC1(C)S[C@@H]2[C@H](NC(=O)[C@H](N)c3ccc(O)cc3)C(=O)N2[C@H]1C(=O)O` [AMOXICILLIN], for which, in the assay with Helicobacter pylori [4], the zone of inhibition at 0.25 µg/disc was determined as 33 mm.
As to `CC(=O)OCC1=C(C(=O)O)N2C(=O)[C@@H](NC(=O)CSc3ccncc3)[C@H]2SC1` [CEPHAPIRIN], the zone of inhibition at 20 µg/disc in the assay on Staphylococcus aureus [5] worked out at 9.4 mm; in the assay with Staphylococcus aureus [6], 8.2 mm.
